# In PMC11506171, “Quercetin as a Modulator of PTPN22 Phosphomonoesterase Activity: A Biochemical and Computational Evaluation” (Current Issues in Molecular Biology, 2024):
# How the values were obtained:
# Type in all cases: biochemical
# [1] = molecular target: T1, protein tyrosine phosphatase nonreceptor type 22 (PTPN22) (Homo sapiens, UniProt Q9Y2R2); assay: pNPP phosphatase assay with recombinant enzyme; Lineweaver-Burk and Dixon plots (Ki […])
# T1 construct: catalytic domain, amino acids 1 to 303
# T1 sequence (Q9Y2R2 1-303): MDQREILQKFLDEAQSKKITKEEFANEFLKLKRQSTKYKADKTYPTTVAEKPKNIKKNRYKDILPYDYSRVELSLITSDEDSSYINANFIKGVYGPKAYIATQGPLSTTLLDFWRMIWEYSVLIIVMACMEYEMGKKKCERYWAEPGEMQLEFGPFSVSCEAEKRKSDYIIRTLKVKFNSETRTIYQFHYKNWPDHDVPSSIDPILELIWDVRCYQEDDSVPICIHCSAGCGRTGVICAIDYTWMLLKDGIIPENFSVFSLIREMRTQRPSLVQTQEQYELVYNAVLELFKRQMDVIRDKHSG
# [2] = molecular target: T1, protein tyrosine phosphatase nonreceptor type 22 (PTPN22); assay: pNPP phosphatase assay, single concentration screen at […]; details: read-out: % inhibition at 50 μM
# [3] = molecular target: T1, protein tyrosine phosphatase nonreceptor type 22 (PTPN22); assay: pNPP phosphatase assay with recombinant enzyme, reference inhibitor
SMILES,inhibition at 50 µM [2],other results
O=c1c(O)c(-c2ccc(O)c(O)c2)oc2cc(O)cc(O)c12 [quercetin],,IC50 [1]: 29.6 µM
CO[C@H]1C[C@H](O[C@@H]2/C(C)=C/C[C@@H]3C[C@@H](C[C@]4(CC[C@H](C)[C@@H](C5CCCCC5)O4)O3)OC(=O)[C@@H]3C=C(C)/C(=N/O)[C@H]4OC/C(=C\C=C\[C@@H]2C)[C@]43O)O[C@@H](C)[C@@H]1O [selamectin],54%,
O=C1C=CC(=O)c2c(O)cccc21 [5HNQ],61%,
O=C1C=C(O)C(=O)c2ccccc21 [2HNQ],62%,
C[C@H]1[C@H](C)CC[C@]2(C(=O)O)CC[C@]3(C)C(=CC[C@@H]4[C@@]5(C)CC[C@H](O)C(C)(C)[C@@H]5CC[C@]43C)[C@H]12 [ursolic acid],,IC50 [3]: 37.2 µM
CO[C@H]1C[C@H](O[C@H]2[C@H](C)O[C@@H](O[C@@H]3/C(C)=C/C[C@@H]4C[C@@H](C[C@]5(C=C[C@H](C)[C@@H](C6CCCCC6)O5)O4)OC(=O)[C@@H]4C=C(C)[C@@H](O)[C@H]5OC/C(=C\C=C\[C@@H]3C)[C@]54O)C[C@@H]2OC)O[C@@H](C)[C@@H]1O [doramectin],50%,
